From the NIST ThermoML archive (doi:10.1021/je200721d)
± gives the expanded uncertainty stated by the source.

Experiment: xn = mol fraction of the nth substance listed
Conditions: Liquid, Vibrating tube method

CCCCCCCCCC [decane] + CCCCCC
Conditions	mass density [kg/m3]
362.91 K, 7000 kPa, x2 = 0.0456	681.43 ± 0.31
362.91 K, 8000 kPa, x2 = 0.0456	682.51 ± 0.31
362.91 K, 9000 kPa, x2 = 0.0456	683.59 ± 0.32
362.91 K, 10000 kPa, x2 = 0.0456	684.65 ± 0.33
362.91 K, 11000 kPa, x2 = 0.0456	685.7 ± 0.34
362.91 K, 12000 kPa, x2 = 0.0456	686.71 ± 0.35
362.91 K, 13000 kPa, x2 = 0.0456	687.73 ± 0.35
362.91 K, 14000 kPa, x2 = 0.0456	688.73 ± 0.36
362.91 K, 15000 kPa, x2 = 0.0456	689.71 ± 0.37
362.91 K, 16000 kPa, x2 = 0.0456	690.69 ± 0.38
362.91 K, 17000 kPa, x2 = 0.0456	691.65 ± 0.39
362.91 K, 18000 kPa, x2 = 0.0456	692.61 ± 0.4
362.91 K, 19000 kPa, x2 = 0.0456	693.55 ± 0.41
362.91 K, 20000 kPa, x2 = 0.0456	694.48 ± 0.41
362.91 K, 21000 kPa, x2 = 0.0456	695.43 ± 0.42
362.91 K, 22000 kPa, x2 = 0.0456	696.32 ± 0.43
362.91 K, 23000 kPa, x2 = 0.0456	697.22 ± 0.44
362.91 K, 24000 kPa, x2 = 0.0456	698.09 ± 0.45
362.91 K, 25000 kPa, x2 = 0.0456	698.96 ± 0.46
362.93 K, 1000 kPa, x2 = 0.7524	623.36 ± 0.28
362.93 K, 2000 kPa, x2 = 0.7524	624.97 ± 0.29
362.93 K, 3000 kPa, x2 = 0.7524	626.55 ± 0.3
362.93 K, 4000 kPa, x2 = 0.7524	628.12 ± 0.31
362.93 K, 5000 kPa, x2 = 0.7524	629.63 ± 0.32
362.93 K, 6000 kPa, x2 = 0.7524	631.14 ± 0.32
362.93 K, 7000 kPa, x2 = 0.7524	632.58 ± 0.33
362.93 K, 8000 kPa, x2 = 0.7524	634.03 ± 0.34
362.93 K, 9000 kPa, x2 = 0.7524	635.42 ± 0.35
362.93 K, 10000 kPa, x2 = 0.7524	636.78 ± 0.36
362.93 K, 11000 kPa, x2 = 0.7524	638.11 ± 0.37
362.93 K, 12000 kPa, x2 = 0.7524	639.39 ± 0.38
362.93 K, 13000 kPa, x2 = 0.7524	640.69 ± 0.39
362.93 K, 14000 kPa, x2 = 0.7524	641.96 ± 0.4
362.93 K, 15000 kPa, x2 = 0.7524	643.24 ± 0.41
362.93 K, 16000 kPa, x2 = 0.7524	644.37 ± 0.42
362.93 K, 17000 kPa, x2 = 0.7524	645.56 ± 0.43
362.93 K, 18000 kPa, x2 = 0.7524	646.73 ± 0.44
362.93 K, 19000 kPa, x2 = 0.7524	647.87 ± 0.45
362.93 K, 20000 kPa, x2 = 0.7524	649 ± 0.46
362.93 K, 21000 kPa, x2 = 0.7524	650.11 ± 0.47
362.93 K, 22000 kPa, x2 = 0.7524	651.2 ± 0.48
362.93 K, 23000 kPa, x2 = 0.7524	652.27 ± 0.49
362.93 K, 24000 kPa, x2 = 0.7524	653.3 ± 0.51
362.93 K, 25000 kPa, x2 = 0.7524	654.33 ± 0.52
362.94 K, 1000 kPa, x2 = 0.4968	646.01 ± 0.28
362.94 K, 2000 kPa, x2 = 0.4968	647.42 ± 0.28
362.94 K, 3000 kPa, x2 = 0.4968	648.86 ± 0.29
362.94 K, 4000 kPa, x2 = 0.4968	650.21 ± 0.3
362.94 K, 5000 kPa, x2 = 0.4968	651.6 ± 0.3
362.94 K, 6000 kPa, x2 = 0.4968	652.91 ± 0.31
362.94 K, 7000 kPa, x2 = 0.4968	654.2 ± 0.32
362.94 K, 8000 kPa, x2 = 0.4968	655.48 ± 0.33
362.94 K, 9000 kPa, x2 = 0.4968	656.71 ± 0.34
362.94 K, 10000 kPa, x2 = 0.4968	657.94 ± 0.35
362.94 K, 11000 kPa, x2 = 0.4968	659.13 ± 0.36
362.94 K, 12000 kPa, x2 = 0.4968	660.32 ± 0.37
362.94 K, 13000 kPa, x2 = 0.4968	661.45 ± 0.38
362.94 K, 14000 kPa, x2 = 0.4968	662.6 ± 0.39
362.94 K, 15000 kPa, x2 = 0.4968	663.75 ± 0.39
362.94 K, 16000 kPa, x2 = 0.4968	664.81 ± 0.4
362.94 K, 17000 kPa, x2 = 0.4968	665.88 ± 0.41
362.94 K, 18000 kPa, x2 = 0.4968	666.95 ± 0.42
362.94 K, 19000 kPa, x2 = 0.4968	667.98 ± 0.43
362.94 K, 20000 kPa, x2 = 0.4968	669.01 ± 0.44
362.94 K, 21000 kPa, x2 = 0.4968	670.03 ± 0.45
362.94 K, 22000 kPa, x2 = 0.4968	671.04 ± 0.46
362.94 K, 23000 kPa, x2 = 0.4968	672.03 ± 0.47
362.94 K, 24000 kPa, x2 = 0.4968	673 ± 0.48
362.94 K, 25000 kPa, x2 = 0.4968	673.96 ± 0.49
362.95 K, 1000 kPa, x2 = 0.2185	664.98 ± 0.27
362.95 K, 2000 kPa, x2 = 0.2185	666.23 ± 0.27
362.95 K, 3000 kPa, x2 = 0.2185	667.46 ± 0.28
362.95 K, 4000 kPa, x2 = 0.2185	668.71 ± 0.29
362.95 K, 5000 kPa, x2 = 0.2185	669.93 ± 0.29
362.95 K, 6000 kPa, x2 = 0.2185	671.12 ± 0.3
362.95 K, 7000 kPa, x2 = 0.2185	672.27 ± 0.31
362.95 K, 8000 kPa, x2 = 0.2185	673.43 ± 0.32
362.95 K, 9000 kPa, x2 = 0.2185	674.54 ± 0.33
362.95 K, 10000 kPa, x2 = 0.2185	675.66 ± 0.34
362.95 K, 11000 kPa, x2 = 0.2185	676.75 ± 0.34
362.95 K, 12000 kPa, x2 = 0.2185	677.81 ± 0.35
362.95 K, 13000 kPa, x2 = 0.2185	678.85 ± 0.36
362.95 K, 14000 kPa, x2 = 0.2185	679.9 ± 0.37
362.95 K, 15000 kPa, x2 = 0.2185	680.96 ± 0.38
362.95 K, 16000 kPa, x2 = 0.2185	681.94 ± 0.39
362.95 K, 17000 kPa, x2 = 0.2185	682.95 ± 0.4
362.95 K, 18000 kPa, x2 = 0.2185	683.9 ± 0.41
362.95 K, 19000 kPa, x2 = 0.2185	684.89 ± 0.41
362.95 K, 20000 kPa, x2 = 0.2185	685.85 ± 0.42
362.95 K, 21000 kPa, x2 = 0.2185	686.79 ± 0.43
362.95 K, 22000 kPa, x2 = 0.2185	687.72 ± 0.44
362.95 K, 23000 kPa, x2 = 0.2185	688.63 ± 0.45
362.95 K, 24000 kPa, x2 = 0.2185	689.54 ± 0.46
362.95 K, 25000 kPa, x2 = 0.2185	690.43 ± 0.47
